From patent US11926596B2, “Inhibitors of Rho associated coiled-coil containing protein kinase” (KADMON CORPORATION, LLC, priority 2017, dated 2024) come the findings set out here.

Assay [1] relates to luciferase reporter driven by the human ACTA2 gene promoter in NIH3T3 cells. As to the kind of experiment: NIH3T3 cells Acta2-promoter driven-luciferase assay. It counts as cell-based. To be noted: plus TGF 1, 24 hr, read-out: NIH3T3, Acta2-luc, IC50. Here is the method:
NIH3T3 cells Acta2-promoter driven-luciferase assay: A NIH3T3 cell line stably expressing a luciferase reporter driven by the human ACTA2 gene promoter (−1000-1 bp) was established (NIH3T3-Acta2-luciferase). The cells were plated to confluence and treated with the test compounds plus TGF 1 for 24 hr. Cells were then lysed and luciferase activity was measured using the LightSwitch luciferase kit from Active Motif.

Assay [2] has as its target T1, recombinant ROCK2 (amino acids 1-552) (Homo sapiens, UniProt O75116).
T1 construct: ROCK2 (amino acids 1-552) proteins were purchased from ThermoFisher Scientific; purchased ThermoFisher Scientific
As to the kind of experiment: Z'-lyte kinase assay, ROCK2. It is filed as biochemical. The note with it: for inhibition at 0.5 µM / inhibition at 3 µM / inhibition at 1 µM: read-out: ROCK2 % inh. Here is the method: (§1) Determination of compounds ROCK inhibitory activity in vitro (Z'lyte assay): recombinant ROCK1 (amino acids 1-535) and ROCK2 (amino acids 1-552) proteins were purchased from ThermoFisher Scientific. Compounds activities were measured by Z′-lyte kinase kit (ThermoFisher Scientific) and IC50s were calculated.
(§2) Table 2, below, provides in vitro and cellular inhibition of ROCKs by compounds of the invention. Compounds activities were measured by Z′-lyte kinase kit (ThermoFisher Scientific). […] IC50s were calculated using the GraphPad Prism software with kinase activities data that were collected from points 9 serial dilution of compounds treatment. The ROCK inhibition in A7R5 cells and NIH3T3 (Acta2-Luc) cells was performed as described above.

Assay [3] concerns phospho-myosin light chains (ppMlc, Thr18/Ser19) in A7R5 cells. The assay can be described thus: A7R5 in-cell ELISA, phospho-myosin light chain. It is filed as cell-based, rat. To be noted: for IC50 / inhibition at 10 µM: Rattus norvegicus, A7R5 cells; for inhibition at 10 µM: read-out: pMLC % inh A7R5. The procedure:
Determination of compounds ROCK inhibitory activity in A7R5 cells: rat aortic smooth muscle cell line A7R5 cells were maintained and treated in DMEM medium with 10% of fetal bovine serum. Cells were seeded with density of 5,000 cells/well in 96-well plates for 24 hours and subsequently treated 90 min with testing compounds. Cells were then fixed and processed according to the In-Cell ELISA Colorimetric Detection Kit manual (Thermo Scientific). Cellular phospho-myosin light chains (ppMlc, Thr18/Ser19) levels were determined after treatments of DMSO control or test compounds using the In-Cell ELISA kit. The percent inhibition rate was calculated by applying the data obtained with 1 μM (or 10 μM) compound treatment to the formula, [1-(compound/DMSO)]×100%. ppMlc data obtained with 9 points 2-fold serial dilution of compounds were applied to the nonlinear regression curve fit function of the GraphPad Prism software to calculate the In cell IC50s.
A7R5 cells were treated with 9 points 2 fold serial dilution of compounds and ppMlc (T18/S19) levels were determined in order to calculate cellular IC50s of the compounds.
Two steps of measurements were adopted for pMLC/A7R5 IC50. Percent inhibition rates were calculated with a single dose (1 μM or 10 μM) compounds treatment to screen for active compounds and then cellular IC50s were measured only in compounds that have over 50% of inhibition rates.
In general terms: An ELISA detects its analyte on a solid surface through an enzyme-linked reagent.

Assay [4] concerns the target T2, recombinant ROCK1 (amino acids 1-535) (Homo sapiens, UniProt Q13464).
T2 construct: recombinant ROCK1 (amino acids 1-535) and ROCK2; purchased ThermoFisher Scientific
The assay can be described thus: Z'-lyte kinase assay, ROCK1. It is filed as biochemical. The note with it: for inhibition at 0.5 µM / inhibition at 3 µM: read-out: ROCK1 % inh. The procedure: as §1, §2

[5] abbreviates: 1.5 h, 90 min, read-out: pMLC IC50 A7R5.
Setting [6] is: ppMlc (T18/S19), 9 points 2 fold serial dilution, read-out: ppMIc IC50.

Structures are written as SMILES. Where two headings read alike, the source gives them in different places.

T2 sequence (Q13464 1-535): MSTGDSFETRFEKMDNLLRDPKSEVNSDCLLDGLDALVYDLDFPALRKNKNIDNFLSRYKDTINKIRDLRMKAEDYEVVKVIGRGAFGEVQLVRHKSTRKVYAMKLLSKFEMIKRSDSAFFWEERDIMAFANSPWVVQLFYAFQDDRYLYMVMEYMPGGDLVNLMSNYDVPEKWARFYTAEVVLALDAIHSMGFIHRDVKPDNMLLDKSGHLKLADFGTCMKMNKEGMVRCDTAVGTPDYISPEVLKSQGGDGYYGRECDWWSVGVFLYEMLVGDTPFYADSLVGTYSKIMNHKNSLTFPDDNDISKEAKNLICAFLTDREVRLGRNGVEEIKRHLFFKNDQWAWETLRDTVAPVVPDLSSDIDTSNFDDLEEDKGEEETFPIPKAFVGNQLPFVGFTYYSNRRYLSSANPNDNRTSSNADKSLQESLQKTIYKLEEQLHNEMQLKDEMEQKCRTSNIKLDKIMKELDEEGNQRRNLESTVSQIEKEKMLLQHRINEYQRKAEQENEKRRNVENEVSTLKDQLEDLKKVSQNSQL
T1 sequence (O75116 1-552): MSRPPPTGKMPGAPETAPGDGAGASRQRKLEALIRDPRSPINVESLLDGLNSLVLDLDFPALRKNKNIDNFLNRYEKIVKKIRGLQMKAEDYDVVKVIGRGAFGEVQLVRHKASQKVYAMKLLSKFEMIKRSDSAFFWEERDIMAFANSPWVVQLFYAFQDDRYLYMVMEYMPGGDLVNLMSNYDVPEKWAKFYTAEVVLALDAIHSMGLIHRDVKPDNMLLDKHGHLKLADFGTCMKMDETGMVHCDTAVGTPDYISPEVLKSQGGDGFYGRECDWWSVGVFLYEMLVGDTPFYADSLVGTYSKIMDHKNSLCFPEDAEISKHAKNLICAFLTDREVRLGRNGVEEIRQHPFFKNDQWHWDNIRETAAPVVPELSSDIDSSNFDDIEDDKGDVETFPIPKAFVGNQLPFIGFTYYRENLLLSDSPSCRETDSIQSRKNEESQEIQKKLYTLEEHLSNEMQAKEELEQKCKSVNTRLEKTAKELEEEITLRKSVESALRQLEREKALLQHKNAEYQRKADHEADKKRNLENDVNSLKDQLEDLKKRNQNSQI

Take `CCNC(C(=O)Nc1ccc2[nH]ncc2c1)c1cccc(F)c1` (centres unmarked) [Example 51, 2-(ethylamino)-2-(3-fluorophenyl)-N-(1H-indazol-5-yl)acetamide]: the IC50 (as a rule, the concentration that inhibits the measured activity by half) came to 5450 nM in assay [1], 53 nM in assay [2] and 1660 nM in assay [3] (setting [5]).
`CCNC(C(=O)Nc1ccc2[nH]ncc2c1)c1cccc(Cl)c1` (centres unmarked) [Example 58, 2-(3-chlorophenyl)-2-(ethylamino)-N-(1H-indazol-5-yl)acetamide]: the figures for the inhibition at 0.5 µM in assay [4] and in assay [2] were 85% and 61%, respectively. Moreover, the half-maximal inhibitory concentration (IC50) in assay [1] is 1090 nM; in assay [2], 64 nM; in assay [3] (setting [5]), 722 nM.
On to `CCNC(C(=O)Nc1ccc2[nH]ncc2c1)c1ccc(C)cc1` (centres unmarked) [Example 30, 2-(ethylamino)-N-(1H-indazol-5-yl)-2-(p-tolyl)acetamide], for which the IC50 in assay [4] was found to be 16 nM; in assay [1], 960 nM; in assay [2] it was 13 nM; in assay [3] (setting [5]), 502 nM. For the same molecule, the inhibition at 3 µM in assay [4] is 99%; in assay [2] it was 98.8%.
In the case of `CNC(C(=O)Nc1ccc2[nH]ncc2c1)c1ccc(Oc2ccc(OC)cc2)cc1` (centres unmarked) [Example 14, N-(1H-indazol-5-yl)-2-(4-(4-methoxyphenoxy)phenyl)-2-(methylamino)acetamide], the IC50 in assay [4] came out at 32.6 nM; in assay [1] it was 678 nM; in assay [3] (setting [5]), 207 nM; in assay [3] (setting [6]), 207 nM. Moreover, the inhibition at 0.5 µM in assay [2] was 100%.
Regarding `CCNC(C(=O)Nc1ccc2[nH]ncc2c1)c1ccc(OC)cc1` (centres unmarked) [Example 26, 2-(ethylamino)-N-(1H-indazol-5-yl)-2-(4-methoxyphenyl)acetamide], the IC50 in assay [4] was 24 nM; in assay [1], 845 nM; in assay [2], 12 nM; in assay [3] (setting [5]) it was 261 nM. Moreover, the inhibition at 3 µM came to 99% in assay [4] and 98.8% in assay [2].
Turning to `CNC(C(=O)Nc1ccc2[nH]ncc2c1)c1ccc(OC)cc1` (centres unmarked) [Example 24, N-(1H-indazol-5-yl)-2-(4-methoxyphenyl)-2-(methylamino)acetamide], the IC50 in assay [4] was 3.89 nM; in assay [1] it was 321 nM; in assay [2] it was 3.6 nM; in assay [3] (setting [5]), 224 nM. In addition, the inhibition at 3 µM in assay [4] came to 99%; in assay [2], 98.8%.
On to `CNC(C(=O)Nc1ccc2[nH]ncc2c1)c1cccc(C)c1` (centres unmarked) [Example 52, N-(1H-indazol-5-yl)-2-(methylamino)-2-(m-tolyl)acetamide], for which the IC50 is 1510 nM in assay [1], 34 nM in assay [2] and 532 nM in assay [3] (setting [5]).
On to `CNC(C(=O)Nc1ccc2[nH]ncc2c1)c1ccccc1Cl` (centres unmarked) [Example 47, 2-(2-chlorophenyl)-N-(1H-indazol-5-yl)-2-(methylamino)acetamide], for which the IC50 in assay [4] was found to be 8.3 nM; in assay [1], 659 nM; in assay [2], 135 nM; in assay [3] (setting [5]), 461 nM; in assay [3] (setting [6]), 461 nM.
For `CNC(C(=O)Nc1ccc2[nH]ncc2c1)c1ccc(Cl)cc1` (centres unmarked) [Example 16, 2-(4-chlorophenyl)-N-(1H-indazol-5-yl)-2-(methylamino)acetamide], the IC50 in assay [4] worked out at 3.8 nM; in assay [1], 915 nM; in assay [2], 15 nM; in assay [3] (setting [5]), 252 nM. Besides, in assay [4], the inhibition at 3 µM was found to be 93.2%. Moreover, the inhibition at 1 µM in assay [2] was 99%. Moreover, the “cellular ROCK inhibition compared with Comparative Example 2” value in assay [3] (phosphorylation of the ROCK target pMLC in A7R5 cells) was “enhanced”.
For the molecule `CNC(C(=O)Nc1ccc2[nH]ncc2c1)c1ccc(OC(F)(F)F)cc1` (centres unmarked) [Example 56, N-(1H-indazol-5-yl)-2-(methylamino)-2-(4-(trifluoromethoxy)phenyl)acetamide], the IC50 in assay [1] was determined as 666 nM; in assay [2], 46 nM; in assay [3] (setting [5]), 546 nM.
For `CNC(C(=O)Nc1ccc2[nH]ncc2c1)c1cccc(F)c1` (centres unmarked) [Example 53, 2-(3-fluorophenyl)-N-(1H-indazol-5-yl)-2-(methylamino)acetamide], the 50% inhibitory concentration (IC50) in assay [1] is 1160 nM; in assay [2] it was 41 nM; in assay [3] (setting [5]) it was 914 nM.
As for `CN[C@H](C(=O)Nc1ccc2[nH]ncc2c1)c1cccc(OC)c1` [Example 55, (S)-N-(1H-indazol-5-yl)-2-(3-methoxyphenyl)-2-(methylamino)acetamide], the IC50 in assay [1] is 773 nM; in assay [2], 30 nM; in assay [3] (setting [5]), 589 nM.
For `CN[C@@H](C(=O)Nc1ccc2[nH]ncc2c1)c1cccc(OC)c1` [Example 54, (R)-N-(1H-indazol-5-yl)-2-(3-methoxyphenyl)-2-(methylamino)acetamide], the IC50 in assay [1] is 268 nM; in assay [2], 14 nM; in assay [3] (setting [5]), 200 nM.
As for `NC(C(=O)Nc1ccc2[nH]ncc2c1)c1ccccc1F` (centres unmarked) [Comp7, reference compound], the results for the half-maximal inhibitory concentration (IC50) in assay [4], in assay [2] and in assay [3] (setting [5]) were 166 nM, 303 nM and 18400 nM, respectively. In addition, the inhibition at 3 µM in assay [4] and in assay [2] was 100% throughout.
`Cc1ccc(C(NC2CC2)C(=O)Nc2ccc3[nH]ncc3c2)cc1` (centres unmarked) [Example 31, 2-(cyclopropylamino)-N-(1H-indazol-5-yl)-2-(p-tolyl)acetamide]: the IC50 was 228 nM in assay [4] and greater than 1000 nM in assay [2]. For the same molecule, in assay [3], the inhibition at 10 µM was 35%.
In the case of `CNC(C(=O)N(CCN(C)C)c1ccc2[nH]ncc2c1)c1cccc(OC)c1` (centres unmarked) [Example 7, N-(2-(dimethylamino)ethyl)-N-(1H-indazol-5-yl)-2-(3-methoxyphenyl)-2-(methylamino)acetamide], in assay [4], the inhibition at 0.5 µM turned out to be 16%. In assay [2], the IC50 came to 1630 nM and the inhibition at 1 µM was 11%. Also, the inhibition at 10 µM in assay [3] was 2%.
Regarding `CNC(C(=O)Nc1ccc2[nH]ncc2c1)c1ccc(-c2ccccc2OC)cc1` (centres unmarked) [Example 32, N-(1H-indazol-5-yl)-2-(2′-methoxy-[1,1′-biphenyl]-4-yl)-2-(methylamino)acetamide], the IC50 in assay [4] was 310 nM; in assay [2], greater than 1000 nM. Further, the inhibition at 10 µM in assay [3] was found to be 5%.
For `CNC(C(=O)Nc1ccc2[nH]ncc2c1)c1ccc(OC)c(F)c1` (centres unmarked) [Example 57, 2-(3-fluoro-4-methoxyphenyl)-N-(1H-indazol-5-yl)-2-(methylamino)acetamide], the figures for the IC50 in assay [1], in assay [2] and in assay [3] (setting [5]) were 473 nM, 25 nM and 339 nM, respectively. For the same molecule, the inhibition at 0.5 µM in assay [2] came out at 95%.
In the case of `CNC(C(=O)Nc1ccc2[nH]ncc2c1)c1ccc(C)cc1` (centres unmarked) [Example 28, N-(1H-indazol-5-yl)-2-(methylamino)-2-(p-tolyl)acetamide], the IC50 in assay [4] turned out to be 17.8 nM; in assay [2], 21.2 nM; in assay [3] (setting [5]) it was 834 nM. In addition, the inhibition at 3 µM in assay [4] was found to be 99%; in assay [2], 98.8%.
On to `CNC(C(=O)Nc1ccc2[nH]ncc2c1)c1cccc(Cl)c1` (centres unmarked) [Example 42, 2-(3-chlorophenyl)-N-(1H-indazol-5-yl)-2-(methylamino)acetamide], for which the IC50 stood at 8.8 nM in assay [4], 882 nM in assay [1], 16 nM in assay [2] and 454 nM in assay [3] (setting [5]).
